Experimental data published in patent US20080182859A1 (Curis, Inc., priority 2006, published 2008).
Structures can show the parent of a compound that is named as a salt.

Legend:
sonic hedgehog pathway [1] = assay: Hedgehog pathway Gli-luciferase reporter assay, S12 cells; assay type: cell-based; conditions: S12 mouse embryonic mesenchymal cells, read-out: Mouse S12 Avg. EC50
Description: Mouse (TM3: mouse Leydig cells; S12: mouse embryonic mesenchymal cells) and human (Daoy: human medulloblastoma cell; HepM: human embryonic palatal mesenchymal cell) cell lines are used to screen small molecules for their ability to modulate the activity of the sonic hedgehog pathway (Table 1, Table 2, and Table 3). Stable hedgehog pathway reporter cell lines are established by specific antibiotic selection following transfection of a reporter plasmid containing a luciferase gene located directly downstream from the gli promoter. Consequently, any observable changes in cellular luciferase activity may be attributed to changes in sonic hedgehog pathway activity in mouse and human cells, respectively, since gli is the major by-product of this pathway. To calculate activity, we generate an eleven point dose curve for each compound using 1:3 dilutions in 96 well assay plates. Each plate tested also contains low and high control to establish maximal pathway activation so to establish/compare a percentage activation of each tested compound (AMAX) on respective plates. Also we calculate EC50 values, or a concentration where the pathway will be exactly 50% activated, for each tested compound to determine potency. In these cell lines, compounds that register >20% AMAX values are considered active.
Stable hedgehog pathway reporter cell lines are established following specific antibiotic selection following transfection of a reporter plasmid In short, typically cells are plated in MicroTiter-plates at 10,000-20,000 cells per well, in growth media (containing 10%-20% FBS). After 48-72 hrs (HGL and DGL respectively) the media in the assay plates is switched to low-serum containing media (0.5% FBS). At that time compounds are added (at 1-5 μM) to the assay plates, in the presence or absence of hedgehog protein (octyl-modified version; 1-5 ng/ml). After another 24 hrs of incubation, the media from the assay plates is discarded and replaced with luciferase assay-mix. Subsequently, plates are incubated at RT for ˜15-30 mins and then read in a luminometer. [note: addition of the Hedgehog protein, although not critical, will sensitize the assay allowing the identification of weak actives].

sonic hedgehog pathway [2] = assay: Human hedgehog reporter assay Daoy-GliLuc (DGL); assay type: cell-based; conditions: Daoy human medulloblastoma cells, Gli-luciferase reporter; read-out: Human Daoy (Gli-Luc) Avg. EC50
How it was run: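 Luminescence read-out of gli-promoter luciferase in stably transfected cells; 11-point 1:3 dose curves, 24 h compound exposure in 0.5% FBS, ± octyl-modified Hh protein 1–5 ng/ml. AMAX as % of plate low/high controls; EC50 from curve; >20% AMAX counted active.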

EC50 (sonic hedgehog pathway [2]) | SMILES | EC50 (sonic hedgehog pathway [1])
< 50 nM | COc1ccc(-c2ccncc2)cc1CN(C(=O)c1sc2c(F)ccc(F)c2c1Cl)[C@H]1CC[C@@H](N)CC1 [Compound 375, N-((1r,4r)-4-aminocyclohexyl)-3-chloro-4,7-difluoro-N-(2-methoxy-5-(pyridin-4-yl)benzyl)benzo[b]thiophene-2-carboxamide hydrochloride] | < 50 nM
< 50 nM | CN[C@H]1CC[C@@H](N(Cc2cc(-c3cccc([S+](C)[O-])c3)ccc2OC)C(=O)c2sc3c(F)ccc(F)c3c2Cl)CC1 (some centres unmarked) [Compound 376, 3-Chloro-4,7-difluoro-benzo[b]thiophene-2-carboxylic acid (3′-methanesulfinyl-4-methoxy-biphenyl-3-ylmethyl)-(4-methylamino-cyclohexyl)-amide trifluoroacetate] | < 50 nM
< 50 nM | CN[C@H]1CC[C@@H](N(Cc2cc(-c3ccc([S+](C)[O-])cc3)ccc2OC)C(=O)c2sc3c(F)ccc(F)c3c2Cl)CC1 (some centres unmarked) [Compound 377, 3-Chloro-4,7-difluoro-benzo[b]thiophene-2-carboxylic acid (4′-methanesulfinyl-4-methoxy-biphenyl-3-ylmethyl)-(4-methylamino-cyclohexyl)-amide trifluoroacetate] | < 50 nM
< 50 nM | CNC1CCC(N(Cc2cc(-c3cccnc3F)ccc2OC)C(=O)c2sc3c(F)ccc(F)c3c2Cl)CC1 (centres unmarked) [Compound 378, 3-Chloro-4,7-difluoro-benzo[b]thiophene-2-carboxylic acid [5-(2-fluoro-pyridin-3-yl)-2-methoxy-benzyl]-(4-methylamino-cyclohexyl)-amide] | < 50 nM
< 50 nM | CNC1CCC(N(Cc2cc(-c3ccc(F)nc3)ccc2OC)C(=O)c2sc3c(F)ccc(F)c3c2Cl)CC1 (centres unmarked) [Compound 379, 3-Chloro-4,7-difluoro-benzo[b]thiophene-2-carboxylic acid [5-(6-fluoro-pyridin-3-yl)-2-methoxy-benzyl]-(4-methylamino-cyclohexyl)-amide] | < 50 nM
< 50 nM | CNC1CCC(N(Cc2cc(-c3cncc(F)c3)ccc2OC)C(=O)c2sc3c(F)ccc(F)c3c2Cl)CC1 (centres unmarked) [Compound 380, 3-Chloro-4,7-difluoro-benzo[b]thiophene-2-carboxylic acid [5-(5-fluoro-pyridin-3-yl)-2-methoxy-benzyl]-(4-methylamino-cyclohexyl)-amide] | < 50 nM
< 50 nM | CN[C@H]1CC[C@@H](N(Cc2cc(-c3cccnc3F)ccc2OC)C(=O)c2sc3cccc(F)c3c2Cl)CC1 [Compound 381] | < 50 nM
< 50 nM | CNC1CCC(N(Cc2cc(-c3ccc(F)nc3)ccc2OC)C(=O)c2sc3cccc(F)c3c2Cl)CC1 (centres unmarked) [Compound 382, 3-Chloro-4-fluoro-benzo[b]thiophene-2-carboxylic acid [5-(6-fluoro-pyridin-3-yl)-2-methoxy-benzyl]-(4-methylamino-cyclohexyl)-amide] | < 50 nM
< 50 nM | CN[C@H]1CC[C@@H](N(Cc2cc(-c3cncc(F)c3)ccc2OC)C(=O)c2sc3cccc(F)c3c2Cl)CC1 [Compound 383, 3-chloro-4-fluoro-N-(5-(5-fluoropyridin-3-yl)-2-methoxybenzyl)-N-((1s,4s)-4-(methylamino)cyclohexyl)benzo[b]thiophene-2-carboxamide] | < 50 nM
< 50 nM | CNC1CCC(N(Cc2cc(-c3ccnc(F)c3)ccc2OC)C(=O)c2sc3c(F)ccc(F)c3c2Cl)CC1 (centres unmarked) [Compound 384, 3-Chloro-4,7-difluoro-benzo[b]thiophene-2-carboxylic acid [5-(2-fluoro-pyridin-4-yl)-2-methoxy-benzyl]-(4-methylamino-cyclohexyl)-amide] | < 50 nM
< 50 nM | CNC1CCC(N(Cc2cc(-c3ccnc(F)c3)ccc2OC)C(=O)c2sc3cccc(F)c3c2Cl)CC1 (centres unmarked) [Compound 385, 3-Chloro-4-fluoro-benzo[b]thiophene-2-carboxylic acid [5-(2-fluoro-pyridin-4-yl)-2-methoxy-benzyl]-(4-methylamino-cyclohexyl)-amide] | < 50 nM
< 50 nM | CNC1CCC(N(Cc2cc(-c3ccncc3F)ccc2OC)C(=O)c2sc3c(F)ccc(F)c3c2Cl)CC1 (centres unmarked) [Compound 386, 3-Chloro-4,7-difluoro-benzo[b]thiophene-2-carboxylic acid [5-(3-fluoro-pyridin-4-yl)-2-methoxy-benzyl]-(4-methylamino-cyclohexyl)-amide] | < 50 nM
< 50 nM | CNC1CCC(N(Cc2cc(-c3ccncc3F)ccc2OC)C(=O)c2sc3cccc(F)c3c2Cl)CC1 (centres unmarked) [Compound 387, 3-Chloro-4-fluoro-benzo[b]thiophene-2-carboxylic acid [5-(3-fluoro-pyridin-4-yl)-2-methoxy-benzyl]-(4-methylamino-cyclohexyl)-amide] | < 50 nM
< 50 nM | CN[C@H]1CC[C@@H](N(Cc2cc(-c3ccc(S(N)(=O)=O)cc3)ccc2OC)C(=O)c2sc3c(F)ccc(F)c3c2Cl)CC1 [Compound 388, 3-Chloro-4,7-difluoro-benzo[b]thiophene-2-carboxylic acid (4-methoxy-4′-sulfamoyl-biphenyl-3-ylmethyl)-(4-methylamino-cyclohexyl)-amide hydrochloride] | < 50 nM
< 50 nM | CCS(=O)(=O)c1ccc(-c2ccc(OC)c(CN(C(=O)c3sc4c(F)ccc(F)c4c3Cl)[C@H]3CC[C@@H](NC)CC3)c2)cc1 [Compound 389, 3-Chloro-4,7-difluoro-benzo[b]thiophene-2-carboxylic acid (4′-ethanesulfonyl-4-methoxy-biphenyl-3-ylmethyl)-(4-methylamino-cyclohexyl)-amide hydrochloride] | < 50 nM
< 50 nM | COc1ccc(-c2ccc(S(C)(=O)=O)cc2)cc1CN(C(=O)c1sc2c(F)ccc(F)c2c1Cl)[C@H]1CC[C@@H](N)CC1 [Compound 390, 3-Chloro-4,7-difluoro-benzo[b]thiophene-2-carboxylic acid (4-amino-cyclohexyl)-(4′-methanesulfonyl-4-methoxy-biphenyl-3-ylmethyl)-amide hydrochloride] | < 50 nM
< 50 nM | CN[C@H]1CC[C@@H](N(Cc2cc(-c3ccc(S(=O)(=O)N(C)C)cc3)ccc2OC)C(=O)c2sc3c(F)ccc(F)c3c2Cl)CC1 [Compound 391, 3-Chloro-4,7-difluoro-benzo[b]thiophene-2-carboxylic acid (4′-dimethylsulfamoyl-4-methoxy-biphenyl-3-ylmethyl)-(4-methylamino-cyclohexyl)-amide trifluoroacetate] | < 50 nM
< 50 nM | CN[C@H]1CC[C@@H](N(Cc2cc(-c3ccncc3)ccc2C)C(=O)c2sc3c(F)ccc(F)c3c2Cl)CC1 [Compound 392, 3-Chloro-4,7-difluoro-benzo[b]thiophene-2-carboxylic acid (4-methylamino-cyclohexyl)-(2-methyl-5-pyridin-4-yl-benzyl)-amide bis(trifluoroacetate)] | < 50 nM
50 to 250 nM | C=Cc1ccc(-c2ccc(OC)c(CN(C(=O)c3sc4c(F)ccc(F)c4c3Cl)[C@H]3CC[C@@H](N)CC3)c2)cc1 [Compound 393, N-((1r,4r)-4-aminocyclohexyl)-3-chloro-4,7-difluoro-N-((4-methoxy-4′-vinylbiphenyl-3-yl)methyl)benzo[b]thiophene-2-carboxamide] | 50 to 250 nM
< 50 nM | CN[C@H]1CC[C@@H](N(Cc2cc(OC)cc(-c3ccncc3)c2)C(=O)c2sc3c(F)ccc(F)c3c2Cl)CC1 [Compound 394, 3-Chloro-4,7-difluoro-benzo[b]thiophene-2-carboxylic acid (3-methoxy-5-pyridin-4-yl-benzyl)-(4-methylamino-cyclohexyl)-amide bis(trifluoroacetate)] | < 50 nM
50 to 250 nM | CCc1ccc(-c2ccncc2)cc1CN(C(=O)c1sc2c(F)ccc(F)c2c1Cl)[C@H]1CC[C@@H](NC)CC1 [Compound 395, 3-Chloro-4,7-difluoro-benzo[b]thiophene-2-carboxylic acid (2-ethyl-5-pyridin-4-yl-benzyl)-(4-methylamino-cyclohexyl)-amide dihydrochloride] | 50 to 250 nM

SMILES | EC50 (sonic hedgehog pathway [2]) | EC50 (sonic hedgehog pathway [1])
CN[C@H]1CC[C@@H](N(Cc2cc(-c3cc[n+]([O-])cc3)ccc2OC)C(=O)c2sc3c(F)ccc(F)c3c2Cl)CC1 [Compound 374, 4-(3-((3-chloro-4,7-difluoro-N-((1s,4s)-4-(methylamino)cyclohexyl)benzo[b]thiophene-2-carboxamido)methyl)-4-methoxyphenyl)pyridine 1-oxide] | < 50 nM | < 50 nM
